Experimental data taken from US20240368174A1, “Antiviral Heterocyclic Compounds” (Enanta Pharmaceuticals, Inc., priority 2023, published 2024).

System: HMPV clinical isolate A2 strain TN 94-49
Assay: HMPV antiviral assay, Method 2 (LLC-MK2 cells with CP-100-356, ATP-Lite)
Format: cell-based
Settings: human metapneumovirus, 168 h; hMPV A2 TN/94-49, LLC-MK2 cells with 4 μM CP-100-356, 7 days, ATP-Lite
Procedure, shortened: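 LLC-MK2 rhesus kidney cells (5,000/well) infected in suspension with HMPV A2 TN 94-49 at MOI 0.16, in serum-free medium with final 2 μg/mL TPCK-trypsin and 2 μM CP-100-356. Compounds tested in duplicate from 200 nM, 2.5-fold, 10 points; 7 days at 37 °C. Cell health by ATP-Lite luminescence; EC50 by four-parameter fit.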

EC50 [µM]	Structure (SMILES)
< 0.2	COc1nccc(-c2nc([C@@](O)(CNC(=O)c3cc(OC)c4nn(C5(F)CC5)cc4c3)C3(F)CC3)cc3c2OC[C@]3(C)C(N)=O)c1Cl [Example 654]
< 0.2	COc1nccc(-c2nc([C@@](O)(CNC(=O)c3cc(OC)c4nc(C5CC5)oc4c3)c3ccc(F)cc3)cc3c2OC[C@]3(C)C(N)=O)c1Cl [Example 699]
> 0.2	COc1cc(C(=O)NC[C@](O)(c2cc3c(c(-c4ccn5nc(C)cc5c4Cl)n2)OC[C@]3(C)C(N)=O)C2CC2)cc2cn(C3CC3)nc12 [Example 837]
< 0.2	COc1nccc(-c2nc([C@@](O)(CNC(=O)c3cc(OC4CC4)c4nn(C5(F)CC5)cc4c3)C(C)C)cc3c2OC[C@]3(C)C(N)=O)c1Cl [Example 892]
< 0.2	COc1cc(C(=O)NC[C@](O)(c2cc3c(c(-c4ccnc(C(F)(F)F)c4F)n2)OC[C@]3(C)C(N)=O)C2CC2)cc2cn(C(F)F)nc12 [Example 799]
> 0.2	COc1nccc(-c2nc([C@@](O)(CNC(=O)c3cc(OC4CC4)c4nn(C(F)F)cc4c3)C3CC(F)(F)C3)cc3c2OC[C@]3(C)C(N)=O)c1Cl [Example 898]
< 0.2	COc1cc(C(=O)NC[C@](O)(c2cc3c(c(-c4c(C)cncc4F)n2)OC[C@]3(C)C(N)=O)C2CC2)cc2cn(C3CC3)nc12 [Example 725]
> 0.2	COc1cc(C(=O)NC[C@](O)(c2cc3c(c(-c4ccnc(C5CCOCC5)c4Cl)n2)OC[C@]3(C)C(N)=O)C2CC2)cc2cn(C3CC3)nc12 [Example 903]
> 0.2	COc1cc(C(=O)NC[C@@](O)(c2ccc(F)cc2)c2cc3c(c(-c4ccnc(C)c4Cl)n2)OC[C@]3(C)C(N)=O)cc2cn(C(F)F)nc12 [Example 648]
> 0.2	COc1cc(C(=O)NC[C@](O)(c2cc3c(c(-n4ncc5c(F)cccc54)n2)OC[C@]3(C)C(N)=O)C2CC2)cc2cc(Cl)c(C)nc12 [Example 899]
< 0.2	COc1cc(C(=O)NC[C@](O)(c2cc3c(c(-c4cc(C(F)(F)F)ncc4F)n2)OC[C@]3(C)C(N)=O)C2(F)CC2)cn2cc(C3CC3)nc12 [Example 668]
< 0.2	COc1cc(C(=O)NC[C@](O)(c2cc3c(c(-c4cc(C5CC5)ncc4F)n2)OC[C@]3(C)C(N)=O)C2CC2)cc2cn(C3CC3)nc12 [Example 723]
< 0.2	COc1cc(C(=O)NC[C@](O)(c2cc3c(c(-c4cc(C(F)(F)F)ncc4F)n2)OC[C@]3(C)C(N)=O)C2(F)CC2)cc2cc(C3CC3)nn12 [Example 669]
< 0.2	COc1nccc(-c2nc([C@@](O)(CNC(=O)c3cc(OC)c4nn(C(F)F)cc4c3)c3ccc(F)cc3)cc3c2OC[C@]3(C)C(N)=O)c1Cl [Example 698]
< 0.2	COc1cc(C(=O)NC[C@](O)(c2cc3c(c(-c4cc(C(F)(F)F)ncc4F)n2)OC[C@]3(C)C(N)=O)C2(F)CC2)cc2cn(C3CC3)nc12 [Example 665]
> 0.2	COc1cc(-c2nc([C@@](O)(CNC(=O)c3cc(OC)c4nn(C5CC5)cc4c3)C3CC3)cc3c2OC[C@]3(C)C(N)=O)c(Cl)cn1 [Example 834]
< 0.2	COc1cc(C(=O)NC[C@](O)(c2cc3c(c(-c4ccnc(Cl)c4C)n2)OC[C@]3(C)C(N)=O)C2CC2)cc2cn(C3CC3)nc12 [Example 815]
> 0.2	COc1cc(C(=O)NC[C@](O)(c2cc3c(c(-c4ccnc(C(C)C)c4Cl)n2)OC[C@]3(C)C(N)=O)C2CC2)cc2cn(C3(F)CC3)nc12 [Example 908]
< 0.2	COc1cc(C(=O)NC[C@](O)(c2cc3c(c(-c4ccnc(C(F)F)c4F)n2)OC[C@]3(C)C(N)=O)C2CC2)cc2cn(C3CC3)nc12 [Example 803]

Same assay, conditions: human metapneumovirus; hMPV A2 TN/94-49, LLC-MK2 cells with CP-100-356, Method 2

EC50 [µM]	Structure (SMILES)
< 0.2	C[C@]1(C(N)=O)COc2c1cc([C@@](O)(CNC(=O)c1cc(Cl)c3nn(C4CC4)cc3c1)C(F)(F)F)nc2-c1ccnc(C(F)(F)F)c1Cl [Example 535]
> 0.2	COc1cc(C(=O)NC[C@@](O)(c2ccccc2)c2cc3c(c(-c4cccc5c4OCO5)n2)OC[C@]3(C)C(N)=O)cc2cn(C3(F)CC3)nc12 [Example 366]
> 0.2	COc1cc(C(=O)NC[C@](O)(c2cc3c(c(-c4ccc(SC(F)(F)F)cc4)n2)OC[C@]3(C)C(N)=O)C2CC2)cc2cn(C3CC3)nc12 [Example 386]
> 0.2	COc1cc(C(=O)NC[C@@](O)(c2cccc(C(C)O)c2)c2cc3c(c(-c4cccc(Cl)c4Cl)n2)OC[C@]3(C)C(N)=O)cc2cn(C3CC3)nc12 (stereo partly shown) [Example 495]
< 0.2	COc1cc(C(=O)NC[C@@](O)(c2ccccc2)c2cc3c(c(-c4cccc(Cl)c4Cl)n2)OC[C@]3(C)C(N)=O)cc2oc(C)nc12 [Example 95]
< 0.2	COc1cc(C(=O)NC[C@@](O)(c2ccccc2)c2cc3c(c(-c4ccnc(C(F)F)c4Cl)n2)OC[C@]3(C)C(N)=O)cc2cn(C3CC3)nc12 [Example 562]
> 0.2	COc1cc(OC)c2cc(C(=O)NC[C@@](O)(c3ccccc3)c3cc4c(c(-c5cc(Cl)c(F)cc5F)n3)OC[C@]4(C)C(N)=O)[nH]c2c1 [Example 94]
> 0.2	C[C@]1(C(N)=O)COc2c1cc([C@@](O)(CNC(=O)c1ccc3nc(-c4ccc5nc(C(F)F)oc5c4)oc3c1)c1ccccc1)nc2-c1cc(Cl)c(F)cc1F [Example 223]
< 0.2	COc1cc(C(=O)NC[C@](O)(c2cc3c(c(-c4cc(C(F)(F)F)c(F)cc4F)n2)OC[C@]3(C)C(N)=O)C2CC2)cc2cc(Cl)cnc12 [Example 316]
< 0.2	COc1nccc(-c2nc([C@@](O)(CNC(=O)c3cc(OC4CC4)c4nn(C(F)F)cc4c3)C(F)(F)F)cc3c2OC[C@]3(C)C(N)=O)c1Cl [Example 587]
< 0.2	C[C@]1(C(N)=O)COc2c1cc([C@@](O)(CNC(=O)c1cc(OC3CC3)c3ncc(Cl)cc3c1)C1CC1)nc2-c1cc(C(F)(F)F)c(F)cc1F [Example 317]
< 0.2	COc1nccc(-c2nc([C@@](O)(CNC(=O)c3cc(OC)c4nn(C(F)F)cc4c3)c3cccc(F)c3)cc3c2OC[C@]3(C)C(N)=O)c1Cl [Example 558]
< 0.2	Cc1nc2c(OC3CC3)cc(C(=O)NC[C@@](O)(c3ccccc3)c3cc4c(c(-c5cc(Cl)c(F)cc5F)n3)OC[C@]4(C)C(N)=O)cc2o1 [Example 234]
< 0.2	COc1cccc(-c2nc([C@@](O)(CNC(=O)c3cc(OC)c4nn(C5(F)CC5)cc4c3)c3ccccc3)cc3c2OC[C@]3(C)C(N)=O)c1Cl [Example 374]
< 0.2	C[C@]1(C(N)=O)COc2c1cc([C@@](O)(CNC(=O)c1cc(OC(F)F)c3ncc(Cl)cc3c1)c1ccccc1)nc2-c1cc(Cl)c(F)cc1F [Example 231]
< 0.2	COc1cc(C(=O)NC[C@@](O)(c2ccccc2)c2cc3c(c(-c4ccc5c(c4)OC(F)(F)O5)n2)OC[C@]3(C)C(N)=O)cc2cc(Cl)cnc12 [Example 202]
> 0.2	C[C@]1(C(N)=O)COc2c1cc([C@@](O)(CNC(=O)c1ccc3nc(C4CC4)oc3c1)c1ccccc1)nc2-c1ccc2c(c1)OC(F)(F)O2 [Example 199]

EC50 [µM]	Structure (SMILES)
< 0.2	COc1cc(C(=O)NC[C@](O)(c2cc3c(c(-c4cc(Cl)c(F)cc4F)n2)OC[C@]3(C)C(N)=O)c2ccnn2C)cc2cn(C3CC3)nc12 [Example 481]
< 0.2	COc1cc(C(=O)NC[C@](O)(c2cc3c(c(-c4ccnc(Cl)c4Cl)n2)OC[C@]3(C)C(N)=O)C2(F)CC2)cc2cn(C(F)F)nc12 [Example 521]
< 0.2	COc1cc(C(=O)NCC(O)(c2ccc(F)cn2)c2cc3c(c(-c4cc(Cl)c(F)cc4F)n2)OC[C@]3(C)C(N)=O)cc2cn(C3CC3)nc12 (stereo partly shown) [Example 210]
> 0.2	Cc1nccc(-c2nc([C@@](O)(CNC(=O)c3cc(Cl)c4nn(C5CC5)cc4c3)C3(F)CC3)cc3c2OC[C@]3(C)C(N)=O)c1Cl [Example 529]
< 0.2	COc1cc(C(=O)NC[C@@](O)(c2cccc(Cl)n2)c2cc3c(c(-c4cc(Cl)c(F)cc4F)n2)OC[C@]3(C)C(N)=O)cc2cn(C3CC3)nc12 [Example 489]
< 0.2	C[C@]1(C(N)=O)COc2c1cc([C@@](O)(CNC(=O)c1cc(OC3CC3)c3nn(C4(F)CC4)cc3c1)c1cccc(F)c1)nc2-c1cccc(Cl)c1Cl [Example 339]
< 0.2	COc1cc(C(=O)NC[C@@](O)(c2ccc(F)cc2)c2cc3c(c(-c4ccnc(C(F)(F)F)c4F)n2)OC[C@]3(C)C(N)=O)cc2cn(C3CC3)nc12 [Example 571]
< 0.2	C[C@]1(C(N)=O)COc2c1cc([C@@](O)(CNC(=O)c1ccc3nn(C4CC4)cc3c1)c1ccccc1)nc2-c1cc(Cl)c(F)cc1F [Example 101]
< 0.2	COc1cc(C(=O)NC[C@@](O)(c2ccccc2)c2cc3c(c(-c4cccc(Cl)c4Cl)n2)OC[C@]3(C)C(N)=O)cc2oc(C3CC3)nc12 [Example 96]
< 0.2	COc1cc(C(=O)NC[C@@](O)(c2ccc(F)cc2)c2cc3c(c(-c4ccnc(C(F)F)c4Cl)n2)OC[C@]3(C)C(N)=O)cc2cn(C3(F)CC3)nc12 [Example 570]
< 0.2	COc1cc(C(=O)NC[C@@](O)(c2cccc(F)n2)c2cc3c(c(-c4cc(Cl)c(F)cc4F)n2)OC[C@]3(C)C(N)=O)cc2cn(C3CC3)nc12 [Example 203]
< 0.2	C[C@]1(C(N)=O)COc2c1cc([C@@](O)(CNC(=O)c1cc(Cl)c3nn(C4CC4)cc3c1)C(F)(F)F)nc2-c1ccnc(C(F)F)c1Cl [Example 549]
< 0.2	COc1cc(C(=O)NC[C@@](O)(c2ccccc2)c2cc3c(c(-c4ccnc(C(F)F)c4Cl)n2)OC[C@]3(C)C(N)=O)cc2cn(C3(F)CC3)nc12 [Example 563]
< 0.2	COc1nccc(-c2nc([C@@](O)(CNC(=O)c3cc(OC)c4nn(C5CC5)cc4c3)c3ccccc3)cc3c2OC[C@]3(C)C(N)=O)c1Cl [Example 553]
> 0.2	COc1cc(C(=O)NC[C@](O)(c2cccc(F)c2)c2cc3c(c(-c4cc(Cl)ncc4F)n2)OC[C@]3(C)C(N)=O)cc2cn(C3CC3)nc12 [Example 411]
> 0.2	COc1nccc(-c2nc([C@@](O)(CNC(=O)c3cc(OC)c4nc(C(F)F)oc4c3)C(F)(F)F)cc3c2OC[C@]3(C)C(N)=O)c1Cl [Example 547]
